Results from the supplement of paper PMC11451515.

Experiments:
Details in all cases: 48 h
SEM cells [1] = assay: cell viability relative to DMSO control; higher = less cytotoxic
How it was run: (§1)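 Before seeding, each leukemia line was adapted for at least four passages in each medium. NOMO1 or SEM cells (500 cells/well) and P12-Ichikawa cells (1000 cells/well) went into 1536-well plates at 5 μl, then received library compounds in DMSO by pin dosing across 11 threefold concentrations, 47 μM to 0.79 nM. Readout was CellTiter-Glo One luminescence after 48 h at 37°C, and viability is given as a per-plate percentage of DMSO wells, with cell-free wells as background.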

P12-Ichikawa [2] = assay: as above
How it was run: as §1

NOMO1 [3] = assay: as above
How it was run: as §1

SEM cells [4] = assay: AUC of viability dose-response curve (% viability x log10 dose units); higher = less sensitive
How it was run: (§2)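 Medium-adapted leukemia cells in 1536-well plates, at 500 or 1000 cells/well, were incubated for 48 h at 37°C with library compounds in DMSO at 11 threefold doses from 47 μM to 0.79 nM. CellTiter-Glo One luminescence normalised per plate to DMSO and cell-free wells was fitted with a four-parameter log-logistic model over log10 doses. Area under the curve was integrated from this fit by trapezoidal rule, with curves beyond full viability scaled and failed quality-control curves removed.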

P12-Ichikawa [5] = assay: as above
How it was run: as §2

NOMO1 [6] = assay: as above
How it was run: as §2

O=C(/C=C/c1cccc([S+](=O)([O-])Nc2ccccc2)c1)NO
cell viability [%]
Details	NOMO1 [3]	P12-Ichikawa [2]	SEM cells [1]
HPLM + 10% dialyzed FBS, 0.000781 µM	143	115	113
HPLM + 10% dialyzed FBS, 0.00234 µM	112	115	119
HPLM + 10% dialyzed FBS, 0.00702 µM	121	125	122
HPLM + 10% dialyzed FBS, 0.0211 µM	120	119	129
HPLM + 10% dialyzed FBS, 0.0632 µM	154	129	124
HPLM + 10% dialyzed FBS, 0.19 µM	132	129	75.6
HPLM + 10% dialyzed FBS, 0.569 µM	139	126	58.4
HPLM + 10% dialyzed FBS, 1.71 µM	129	101	26.4
HPLM + 10% dialyzed FBS, 5.12 µM	88	20.8	12.2
HPLM + 10% dialyzed FBS, 15.4 µM	12.2	7.58	8.53
HPLM + 10% dialyzed FBS, 46.1 µM	9.85	7.44	8.48
RPMI 5 mM glucose + 10% FBS, 0.000781 µM	–	–	106
RPMI 5 mM glucose + 10% FBS, 0.00234 µM	–	–	150
RPMI 5 mM glucose + 10% FBS, 0.00702 µM	–	–	124
RPMI 5 mM glucose + 10% FBS, 0.0211 µM	–	–	120
RPMI 5 mM glucose + 10% FBS, 0.0632 µM	–	–	118
RPMI 5 mM glucose + 10% FBS, 0.19 µM	–	–	81.1
RPMI 5 mM glucose + 10% FBS, 0.569 µM	–	–	53
RPMI 5 mM glucose + 10% FBS, 1.71 µM	–	–	26.7
RPMI 5 mM glucose + 10% FBS, 5.12 µM	–	–	10.6
RPMI 5 mM glucose + 10% FBS, 15.4 µM	–	–	8.84
RPMI 5 mM glucose + 10% FBS, 46.1 µM	–	–	8.83
RPMI 5 mM glucose + 10% dialyzed FBS, 0.000781 µM	–	–	95.9
RPMI 5 mM glucose + 10% dialyzed FBS, 0.00234 µM	–	–	123
RPMI 5 mM glucose + 10% dialyzed FBS, 0.00702 µM	–	–	120
RPMI 5 mM glucose + 10% dialyzed FBS, 0.0211 µM	–	–	113
RPMI 5 mM glucose + 10% dialyzed FBS, 0.0632 µM	–	–	128
RPMI 5 mM glucose + 10% dialyzed FBS, 0.19 µM	–	–	83.6
RPMI 5 mM glucose + 10% dialyzed FBS, 0.569 µM	–	–	52
RPMI 5 mM glucose + 10% dialyzed FBS, 1.71 µM	–	–	20.9
RPMI 5 mM glucose + 10% dialyzed FBS, 5.12 µM	–	–	9.84
RPMI 5 mM glucose + 10% dialyzed FBS, 15.4 µM	–	–	8.65
RPMI 5 mM glucose + 10% dialyzed FBS, 46.1 µM	–	–	8.77

AUC of viability dose-response curve
Details	NOMO1 [6]	P12-Ichikawa [5]	SEM cells [4]
HPLM + 10% dialyzed FBS	396	362	284
RPMI 5 mM glucose + 10% FBS	402	352	277
RPMI 5 mM glucose + 10% dialyzed FBS	397	365	289

CC(C)C[C@H](NC(=O)[C@@H](NC(=O)c1cccc(-c2ccccc2)n1)[C@@H](C)O)B(O)O
cell viability [%]
Details	NOMO1 [3]	P12-Ichikawa [2]	SEM cells [1]
HPLM + 10% dialyzed FBS, 0.000781 µM	–	101	98.1
HPLM + 10% dialyzed FBS, 0.00234 µM	–	114	110
HPLM + 10% dialyzed FBS, 0.00702 µM	–	112	108
HPLM + 10% dialyzed FBS, 0.0211 µM	–	112	31.3
HPLM + 10% dialyzed FBS, 0.0632 µM	–	45.1	9.24
HPLM + 10% dialyzed FBS, 0.19 µM	–	7.04	8.75
HPLM + 10% dialyzed FBS, 0.569 µM	–	6.52	8.47
HPLM + 10% dialyzed FBS, 1.71 µM	–	6.5	8.47
HPLM + 10% dialyzed FBS, 5.12 µM	–	3.21	7.07
HPLM + 10% dialyzed FBS, 15.4 µM	–	1.52	4.73
HPLM + 10% dialyzed FBS, 46.1 µM	–	1.32	3.46
RPMI 5 mM glucose + 10% FBS, 0.000781 µM	94.7	103	93
RPMI 5 mM glucose + 10% FBS, 0.00234 µM	111	118	107
RPMI 5 mM glucose + 10% FBS, 0.00702 µM	115	123	99
RPMI 5 mM glucose + 10% FBS, 0.0211 µM	128	110	18.2
RPMI 5 mM glucose + 10% FBS, 0.0632 µM	66.2	17.8	9.27
RPMI 5 mM glucose + 10% FBS, 0.19 µM	23.5	7.41	9.18
RPMI 5 mM glucose + 10% FBS, 0.569 µM	8.87	6.75	8.81
RPMI 5 mM glucose + 10% FBS, 1.71 µM	10.1	6.12	8.15
RPMI 5 mM glucose + 10% FBS, 5.12 µM	7.67	4.81	6.37
RPMI 5 mM glucose + 10% FBS, 15.4 µM	5.17	2.62	4.03
RPMI 5 mM glucose + 10% FBS, 46.1 µM	3.38	1.65	3.46
RPMI 5 mM glucose + 10% dialyzed FBS, 0.000781 µM	104	99.4	87.3
RPMI 5 mM glucose + 10% dialyzed FBS, 0.00234 µM	125	109	100
RPMI 5 mM glucose + 10% dialyzed FBS, 0.00702 µM	126	122	95.9
RPMI 5 mM glucose + 10% dialyzed FBS, 0.0211 µM	131	124	28.4
RPMI 5 mM glucose + 10% dialyzed FBS, 0.0632 µM	86.9	53.2	9.88
RPMI 5 mM glucose + 10% dialyzed FBS, 0.19 µM	39.9	7.76	9.98
RPMI 5 mM glucose + 10% dialyzed FBS, 0.569 µM	10.7	6.76	9.77
RPMI 5 mM glucose + 10% dialyzed FBS, 1.71 µM	8.94	6.66	9.35
RPMI 5 mM glucose + 10% dialyzed FBS, 5.12 µM	8.79	5.34	6.09
RPMI 5 mM glucose + 10% dialyzed FBS, 15.4 µM	5.46	2.52	3.83
RPMI 5 mM glucose + 10% dialyzed FBS, 46.1 µM	3.79	1.55	3.48

AUC of viability dose-response curve
Details	NOMO1 [6]	P12-Ichikawa [5]	SEM cells [4]
HPLM + 10% dialyzed FBS	212	197	155
RPMI 5 mM glucose + 10% FBS	218	184	149
RPMI 5 mM glucose + 10% dialyzed FBS	230	201	149

Cc1cccc(C)c1OCC(=O)N[C@@H](Cc1ccccc1)[C@@H](O)C[C@H](Cc1ccccc1)NC(=O)[C@H](C(C)C)N1CCCNC1=O
cell viability [%]
Details	NOMO1 [3]	P12-Ichikawa [2]	SEM cells [1]
HPLM + 10% dialyzed FBS, 0.000781 µM	95.1	99.5	80.3
HPLM + 10% dialyzed FBS, 0.00234 µM	106	96.1	94.2
HPLM + 10% dialyzed FBS, 0.00702 µM	102	98.2	86.7
HPLM + 10% dialyzed FBS, 0.0211 µM	109	102	96.4
HPLM + 10% dialyzed FBS, 0.0632 µM	104	95.7	100
HPLM + 10% dialyzed FBS, 0.19 µM	111	97	81.4
HPLM + 10% dialyzed FBS, 0.569 µM	89	91.9	85.6
HPLM + 10% dialyzed FBS, 1.71 µM	91.5	89.1	76
HPLM + 10% dialyzed FBS, 5.12 µM	91.4	90.2	78.5
HPLM + 10% dialyzed FBS, 15.4 µM	81	86.2	65.4
HPLM + 10% dialyzed FBS, 46.1 µM	43.9	61.8	39
RPMI 5 mM glucose + 10% FBS, 0.000781 µM	85.8	98.5	97.7
RPMI 5 mM glucose + 10% FBS, 0.00234 µM	94	101	94.2
RPMI 5 mM glucose + 10% FBS, 0.00702 µM	97.7	93.9	102
RPMI 5 mM glucose + 10% FBS, 0.0211 µM	85.8	96	94.8
RPMI 5 mM glucose + 10% FBS, 0.0632 µM	95.9	102	108
RPMI 5 mM glucose + 10% FBS, 0.19 µM	97.3	99.6	103
RPMI 5 mM glucose + 10% FBS, 0.569 µM	84	97.4	95.9
RPMI 5 mM glucose + 10% FBS, 1.71 µM	78.4	91.7	90.9
RPMI 5 mM glucose + 10% FBS, 5.12 µM	83	91.3	79.6
RPMI 5 mM glucose + 10% FBS, 15.4 µM	86.4	87.1	77.1
RPMI 5 mM glucose + 10% FBS, 46.1 µM	74.4	56.8	36.7
RPMI 5 mM glucose + 10% dialyzed FBS, 0.000781 µM	96.9	91.6	79.8
RPMI 5 mM glucose + 10% dialyzed FBS, 0.00234 µM	92.9	87.8	101
RPMI 5 mM glucose + 10% dialyzed FBS, 0.00702 µM	92.9	94.1	93.7
RPMI 5 mM glucose + 10% dialyzed FBS, 0.0211 µM	107	88.7	102
RPMI 5 mM glucose + 10% dialyzed FBS, 0.0632 µM	91.1	91.2	104
RPMI 5 mM glucose + 10% dialyzed FBS, 0.19 µM	89.2	90.1	100
RPMI 5 mM glucose + 10% dialyzed FBS, 0.569 µM	81.1	93.6	107
RPMI 5 mM glucose + 10% dialyzed FBS, 1.71 µM	82.4	79.2	104
RPMI 5 mM glucose + 10% dialyzed FBS, 5.12 µM	89.4	85.6	85.5
RPMI 5 mM glucose + 10% dialyzed FBS, 15.4 µM	76.5	83.9	69.1
RPMI 5 mM glucose + 10% dialyzed FBS, 46.1 µM	71	54.8	31.2

AUC of viability dose-response curve
Details	NOMO1 [6]	P12-Ichikawa [5]	SEM cells [4]
HPLM + 10% dialyzed FBS	443	443	391
RPMI 5 mM glucose + 10% FBS	418	448	435
RPMI 5 mM glucose + 10% dialyzed FBS	422	414	435
